The target of assay [1] is Recombinant human His-tagged Kat6a protein (amino acids 194-810) (Homo sapiens (Human), UniProt Q92794). The assay can be described thus: Kat6a activity assay (TR-FRET, acetylation of biotinylated Histone-H4-derived peptide). The assay is classed as biochemical. Conditions: 60 mins at 22° C., read-out: KAT6A-DPF/HAT domain IC50 [mol/l] (arithmetic mean). An excerpt:
Kat6a inhibitory activities of the compounds described in the present invention were quantified using a Fluorescence Resonance Energy Transfer (TR-FRET) assay which measures acetylation of a synthetic, biotinylated Histone-H4-derived peptide by the enzyme.
Recombinant human His-tagged Kat6a protein (amino acids 194-810), was purified in-house from Baculovirus-infected insect cells (Sf9). Histone H4 peptide (amino acids 1-24, […]-VLRD-K(Btn)-amide), which was used as substrate, was synthesized by Biosyntan GmbH, Berlin, Germany. Acetyl Coenzyme A was purchased from Sigma-Aldrich (#A-2056).
Kat6a was incubated for 60 mins at 22° C. in the presence of different concentrations of test substances (0 μM, and within the range 0.01-20 μM) in assay buffer [25 mM Tris/HCl pH 8, 1 mM EGTA, 2.5 mM Glutathion, 0.02% Chicken Albumin, 0.05% Pluronic F127, 25 mM NaCl, 220 nM H4 peptide and 600 nM Acetyl Coenzym A].
The reaction was stopped by addition of Detection Solution (25 mM HEPES pH 7.5, 0.1% BSA, 22 nM SAXL665 (Cisbio #610SAXLE), 100 μM Anacardic Acid (Enzo #ALX-270-381), 1 nM Anti-Histone H4 (ACETYL K8) Antibody (ABCAM #AB15823) and 0.5 nM Anti-Rabbit IgG Eu (Perkin Elmer #AD0083).
The fluorescence emission at 620 nm and 665 nm after excitation at 330-350 nm was measured in a TR-FRET measuring instrument, for instance a Rubystar or a Pherastar (both from BMG Lab Technologies, Offenburg, Germany) or a Viewlux (Perkin-Elmer). The ratio of the emission at 665 nm and at […] was used as indicator of the amount of acetylated peptide.
The resulting data (ratio) were normalized, taking 0% inhibition as the mean value of control measurements where all reagents were included. In this case 50 nl DMSO were used instead of compounds. […] IC50 values were determined by regression analysis based on a 4 parameter equation (minimum, maximum, ICM, Hill; Y=Max+(Min−Max)/(1+(X/ICso) Hill) using the Screener Software (Genedata).
Table 5 depicts the IC50 values of selected examples in biochemical KAT6A and KAT6B3 assays.
For orientation: TR-FRET usually uses a lanthanide donor and a delayed reading to cut background.

Assay [2] relates to ESR1 transcription (luciferase signal in MVLN cells). The experiment in a line: Repression of ESR1 transcription, luciferase reporter in MVLN cells. It is filed as cell-based. Conditions: inhibition of luciferase signal in MVLN cells, arithmetic mean. An excerpt:
Repression of ESR1 Transcription Upon Treatment of Cells with Compounds
KAT6A controls transcription of the ESR1 gene in breast cancer cells. Compound treatment that interferes with this mechanism was quantified using MVLN cells. These cells constitutively express the ER and are stably transfected with the luciferase (LUC) reporter gene and the corresponding hormone responsive element derived from the 5′-flanking region of the Xenopus Vitellogenin A2 gene (Pons et al., 1990, Demirpense et al., 1993, Joyeux et al., 1993). The repressive effect on ERα transcription activity of a test chemical is directly related to the luciferase measured in the lysate of treated MVLN cells.
Each sample was prepared as duplicate and rim wells were excluded. For luciferase signal determination 100 μl of a 1:1 mixture of Steadylite plus (Perkin Elmer; 6016759) and assay medium was added after 24 h for 15 minutes and measured in Victor X3 (Perkin Elmer). To exclude any effects caused by cell loss during the treatment, cell density was determined using Alamar Blue (Invitrogen; DAL1100). Prior to the luciferase measurement 10 μl Alamar Blue were added to each well and the plates were incubated for 2 h in the incubator. Then fluorescence was measured with Victor X3 (Perkin Elmer) at 530 nm/590 nm.
A general note: In a reporter assay the amount or activity of a reporter protein is the signal.

In the next assay the test system is MDA-MB-436 cells. The experiment in a line: Proliferation assay MDA-MB-436, negative control cell line (Alamar Blue, 144 h). To be noted: arithmetic mean. It is filed as cell-based. An excerpt: (§1) Proliferation Assays for Compound Characterization
(§2) For compound characterization cell survival assays were routinely run in two cell lines. ZR-75-1 is a breast carcinoma cell line containing a focal KAT6A amplification and high KAT6A protein expression. Proliferation of this cell line is inhibited upon treatment with KAT6A inhibitors. As a negative control cell line MDA-MB-436 were used. These cells carry a […] deletion of the KAT6A gene, have a low KAT6A protein expression and are not growth inhibited upon treatment with KAT6A inhibitors.
(§3) For measurements cell lines were plated at the below indicated concentration per […] in 96-well plates in a humidified incubator at 37° C. and 5% CO2.
MDA-MB-436 (CLS, 300278; breast adenocarcinoma); 3000 cells per well; culture medium: DMEM/Ham's F12 (Biochrom #FG 4815) medium containing 2.5% FBS (Biochrom #S0615).
(§4) 24 hours later, cells were treated with compounds (stock solution, 10 mM in DMSO) using the HP D300 Digital Dispenser in a concentration range of 2.0×10E-5 M to 2.0×10E-9 M in a single-dot curve with 9 dilutions and a DMSO concentration of 0.2%. Each sample was prepared as triplicate and rim wells were excluded. Plates were incubated at 37° C. and 5% CO2 for 144 h. Cell viability was measured by adding 10 μL of Alamar Blue Reagent (Invitrogen #DAL 1100) and plates were incubated for 2 h at 37° C. and 5% CO2. Fluorescence was measured at 590 nm wavelength with a Tecan Spark or Victor X3 MTP-Reader (PerkinElmer).
For orientation: The colour change of resazurin is a common sign of viable cells or microbes.

The next assay has as its system ZR-75-1 cells. The assay can be described thus: Proliferation assay ZR-75-1 (Alamar Blue, 144 h). It is filed as cell-based. To be noted: arithmetic mean, read-out: ZR75-1 proliferation assay, EC50 [M] (arithmetic mean).
Excerpt: as §1, §2, §3
ZR-75-1 (ATCC, CRL-1500; breast carcinoma); 3000 cells per well; culture medium: RPMI 1640 (Biochrom #FG 1215) medium containing 2.5% FBS (Biochrom #S0615).
as §4

Where two headings read alike, the source gives them in different places. Where only a bound is given, the exact number is not on record here.

Recombinant human His-tagged Kat6a protein (amino acids 194-810), sequence (Q92794 194-810): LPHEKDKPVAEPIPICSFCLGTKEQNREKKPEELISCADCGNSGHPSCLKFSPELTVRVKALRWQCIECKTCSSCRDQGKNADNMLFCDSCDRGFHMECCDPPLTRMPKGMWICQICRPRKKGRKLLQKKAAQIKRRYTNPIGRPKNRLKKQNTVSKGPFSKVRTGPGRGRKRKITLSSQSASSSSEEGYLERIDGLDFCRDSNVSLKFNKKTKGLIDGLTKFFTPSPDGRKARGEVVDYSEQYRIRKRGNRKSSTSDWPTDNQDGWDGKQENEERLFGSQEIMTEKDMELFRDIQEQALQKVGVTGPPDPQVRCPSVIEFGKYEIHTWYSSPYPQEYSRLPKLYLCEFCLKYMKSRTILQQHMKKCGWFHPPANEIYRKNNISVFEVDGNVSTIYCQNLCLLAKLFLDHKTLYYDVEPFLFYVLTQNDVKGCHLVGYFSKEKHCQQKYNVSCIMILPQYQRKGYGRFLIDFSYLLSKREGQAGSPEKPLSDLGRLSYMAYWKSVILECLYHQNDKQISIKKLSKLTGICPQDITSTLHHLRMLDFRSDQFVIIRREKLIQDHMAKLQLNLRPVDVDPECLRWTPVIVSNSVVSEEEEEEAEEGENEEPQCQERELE

`C[C@H](Oc1cccc(OC2CCC2)c1S(=O)(=O)NC(=O)c1cc2ccc(N(C)C)cc2o1)C(F)(F)F` (single isomer, unassigned) [Example 221]: the IC50 in assay [1] was 0.0444 µM; in assay [2], 0.582 µM. This molecule came in with an EC50 with MDA-MB-436 cells of 8.25 µM.
For the molecule `C[C@@H](Oc1cccc(OC2CCC2)c1S(=O)(=O)NC(=O)c1cc2ccc(N(C)C)cc2o1)C(F)(F)F` (single isomer, unassigned) [Example 222], the IC50 was 0.0306 µM in assay [1] and 0.595 µM in assay [2]. The molecule also gave an EC50 in the assay with MDA-MB-436 cells above 20 µM.
With `CN(C)c1ccc2cc(C(=O)NS(=O)(=O)c3c(OCc4ccccc4)cccc3OC3CCC3)oc2c1` [Example 69, N-[2-(Benzyloxy)-6-(cycolbutyloxy)benzene-1-sulfonyl]-6-(dimethylamino)-1-benzofuran-2-carboxamide], the EC50 in the assay with ZR-75-1 cells (Homo sapiens, ZR-75-1, 144 h) was determined as 3.84e-07 M. The IC50 is 0.0045 µM in assay [1] and 0.0521 µM in assay [2] (Homo sapiens, MVLN).
Turning to `CN(C)c1ccc2cc(C(=O)NS(=O)(=O)c3ccc([N+](=O)[O-])c4cccnc34)oc2c1` [Example 92, 6-(Dimethylamino)-N-(5-nitroquinoline-8-sulfonyl)-1-benzofuran-2-carboxamide], in the assay with ZR-75-1 cells (Homo sapiens, ZR-75-1, 144 h), the EC50 was 3.43e-07 M. Also, the IC50 in assay [1] was 0.151 µM; in assay [2] (Homo sapiens, MVLN), 0.394 µM.
As for `CCOc1ccc(C(C)C)cc1S(=O)(=O)NC(=O)c1cc2c(F)cc(N(C)C)cc2o1` [Example 107, 6-(Dimethylamino)-N-[2-ethoxy-5-(propan-2-yl)benzene-1-sulfonyl]-4-fluoro-1-benzofuran-2-carboxamide], in the assay with ZR-75-1 cells (Homo sapiens, ZR-75-1, 144 h), the EC50 amounted to 4.49e-08 M. The IC50 is 0.00229 µM in assay [1] and 0.00863 µM in assay [2] (Homo sapiens, MVLN).
`CN(C)c1ccc2cc(C(=O)NS(=O)(=O)c3cc(Cl)cc4cccnc34)oc2c1` [Example 124, N-(6-Chloroquinolone-8-sulfonyl)-6-(dimethylamino)-1-benzofuran-2-carboxamide] registered an IC50 in assay [2] (Homo sapiens, MVLN) of 0.254 µM. In addition, the EC50 in the assay on MDA-MB-436 cells (Homo sapiens, MDA-MB-436, 144 h) is above 20 µM.
As to `CN(C)c1ccc2cc(C(=O)NS(=O)(=O)c3ccc(F)c(F)c3F)oc2c1` [Example 153], the EC50 with ZR-75-1 cells (Homo sapiens, ZR-75-1, 144 h) was found to be 2.77e-06 M. For the same molecule, the IC50 in assay [1] came out at 0.906 µM; in assay [2] (Homo sapiens, MVLN) it was 2.72 µM.
On the same counts, the results for `Cc1cnc(Cl)c(S(=O)(=O)NC(=O)c2cc3ccc(N(C)C)cc3o2)c1` [Example 154] are 7e-06 M, 3.08 µM and 11.5 µM.
Take `CC(C)Nc1cccc(F)c1S(=O)(=O)NC(=O)c1cc2ccc(N(C)C)cc2o1` [Example 155]: the EC50 in the assay with ZR-75-1 cells (Homo sapiens, ZR-75-1, 144 h) worked out at 7.62e-06 M. Further, the IC50 in assay [1] turned out to be 0.932 µM; in assay [2] (Homo sapiens, MVLN), 1.93 µM.
On the same counts, the results for `CN(C)c1ccc2cc(C(=O)NS(=O)(=O)c3cccnc3Cl)oc2c1` [Example 156] are 4.97e-06 M, 3.53 µM and 0.971 µM.
For `Cc1cccc(C2CCCC2)c1S(=O)(=O)NC(=O)c1cc2ccc(N(C)C)cc2o1` [Example 157], the EC50 in the assay with ZR-75-1 cells (Homo sapiens, ZR-75-1, 144 h) was found to be 9.45e-06 M. The IC50 turned out to be 3.18 µM in assay [1] and 6.45 µM in assay [2] (Homo sapiens, MVLN).
Regarding `CN(C)c1ccc2cc(C(=O)NS(=O)(=O)c3c(F)cccc3C3CCC3)oc2c1` [Example 158], the EC50 with ZR-75-1 cells (Homo sapiens, ZR-75-1, 144 h) is 7.93e-06 M. The IC50 in assay [1] is 0.684 µM; in assay [2] (Homo sapiens, MVLN) it was 1.49 µM.
Take `Cc1ccc(S(=O)(=O)NC(=O)c2cc3ccc(N(C)C)cc3o2)c(OC(F)F)c1` [Example 159]: the EC50 in the assay on ZR-75-1 cells (Homo sapiens, ZR-75-1, 144 h) was 6.97e-07 M. Further, the IC50 in assay [1] stood at 0.233 µM; in assay [2] (Homo sapiens, MVLN), 0.519 µM.
On the same counts, the results for `CN(C)c1ccc2cc(C(=O)NS(=O)(=O)c3c(F)cccc3OCC3CC3)oc2c1` [Example 160] are 5.7e-06 M, 0.324 µM and 0.741 µM.
Take `CN(C)c1ccc2cc(C(=O)NS(=O)(=O)c3cc(CO)ccc3OC(F)(F)F)oc2c1` [Example 161]: the EC50 with ZR-75-1 cells (Homo sapiens, ZR-75-1, 144 h) is above 2e-05 M. The IC50 in assay [1] was 6.77 µM; in assay [2] (Homo sapiens, MVLN) it was above 20 µM.
As to `CC(C)c1ccc(C(C)C)c(S(=O)(=O)NC(=O)c2cc3ccc(N(C)C)cc3o2)c1` [Example 162], in the assay with ZR-75-1 cells (Homo sapiens, ZR-75-1, 144 h), the EC50 is above 2e-05 M. Also, the IC50 in assay [1] is 0.366 µM; in assay [2] (Homo sapiens, MVLN), 2.55 µM.
On the same counts, the results for `CC(O)c1ccc(Cl)c(S(=O)(=O)NC(=O)c2cc3ccc(N(C)C)cc3o2)c1` (stereo not drawn) [Example 163] are 9.38e-07 M, 4.35 µM and above 20 µM.
On the same counts, the results for `COCCOc1ccc(Cl)c(S(=O)(=O)NC(=O)c2cc3ccc(N(C)C)cc3o2)c1` [Example 164] are above 2e-05 M, 4.45 µM and above 20 µM.
`CN(C)c1ccc2cc(C(=O)NS(=O)(=O)c3cc(C(F)(F)F)ccc3NCC(F)F)oc2c1` [Example 165]: in the assay with ZR-75-1 cells (Homo sapiens, ZR-75-1, 144 h), the EC50 was found to be 9.21e-06 M. Besides, the IC50 in assay [1] stood at 1.29 µM; in assay [2] (Homo sapiens, MVLN), 5.77 µM.
On the same counts, the results for `CCOc1ccccc1S(=O)(=O)NC(=O)c1cc2cc(C(F)(F)F)c(N(C)C)cc2o1` [Example 201, 6-(Dimethylamino)-N-(2-ethoxybenzene-1-sulfonyl)-5-(trifluoromethyl)-1-benzofuran-2-carboxamide] are 2.9e-06 M, 0.137 µM and 4.23 µM.
On to `Cc1ccc2cccc(S(=O)(=O)NC(=O)c3cc4cc(C#N)c(N(C)C)cc4o3)c2n1` [Example 209, 5-Cyano-6-(dimethylamino)-N-(2-methylquinoline-8-sulfonyl)-1-benzofuran-2-carboxamide], for which, in the assay with ZR-75-1 cells (Homo sapiens, ZR-75-1, 144 h), the EC50 was found to be 9.4e-06 M. In addition, in assay [2] (Homo sapiens, MVLN), the IC50 was above 20 µM.
As for `CN(C)c1ccc2cc(C(=O)NS(=O)(=O)c3ccccc3-c3ccccc3)n(C)c2c1` [Example 210, N-([1,1′-Biphenyl]-2-sulfonyl)-6-(dimethylamino)-1-methyl-1H-indole-2-carboxamide], in the assay with ZR-75-1 cells (Homo sapiens, ZR-75-1, 144 h), the EC50 is above 2e-05 M. For the same molecule, the IC50 in assay [1] stood at 6.66 µM; in assay [2] (Homo sapiens, MVLN), 11.3 µM.
Consider `CN(C)c1ccc2cc(C(=O)NS(=O)(=O)c3ccccc3-c3ccccc3)oc2c1` [Example 226], for which, in the assay on ZR-75-1 cells, the EC50 came to 2.46e-07 M. Moreover, in assay [2], the IC50 amounted to 0.18 µM.
